SMILES strings stand for the structures. pIC50: −log10 of the molar value.

The target of this test is GR (Homo sapiens (Human), UniProt P04150). The test can be described thus: In Vitro GR Luciferase Reporter Assay. The conditions noted are these: CHO-K1-GR-MMTV-Luc reporter cells, antagonist assay, 10 nM Dexamethasone, 18-24 hours. In kind it is cell-based. From the text: Example 4: In Vitro GR Luciferase Reporter Assay
Sequence of GR (P04150 whole entry): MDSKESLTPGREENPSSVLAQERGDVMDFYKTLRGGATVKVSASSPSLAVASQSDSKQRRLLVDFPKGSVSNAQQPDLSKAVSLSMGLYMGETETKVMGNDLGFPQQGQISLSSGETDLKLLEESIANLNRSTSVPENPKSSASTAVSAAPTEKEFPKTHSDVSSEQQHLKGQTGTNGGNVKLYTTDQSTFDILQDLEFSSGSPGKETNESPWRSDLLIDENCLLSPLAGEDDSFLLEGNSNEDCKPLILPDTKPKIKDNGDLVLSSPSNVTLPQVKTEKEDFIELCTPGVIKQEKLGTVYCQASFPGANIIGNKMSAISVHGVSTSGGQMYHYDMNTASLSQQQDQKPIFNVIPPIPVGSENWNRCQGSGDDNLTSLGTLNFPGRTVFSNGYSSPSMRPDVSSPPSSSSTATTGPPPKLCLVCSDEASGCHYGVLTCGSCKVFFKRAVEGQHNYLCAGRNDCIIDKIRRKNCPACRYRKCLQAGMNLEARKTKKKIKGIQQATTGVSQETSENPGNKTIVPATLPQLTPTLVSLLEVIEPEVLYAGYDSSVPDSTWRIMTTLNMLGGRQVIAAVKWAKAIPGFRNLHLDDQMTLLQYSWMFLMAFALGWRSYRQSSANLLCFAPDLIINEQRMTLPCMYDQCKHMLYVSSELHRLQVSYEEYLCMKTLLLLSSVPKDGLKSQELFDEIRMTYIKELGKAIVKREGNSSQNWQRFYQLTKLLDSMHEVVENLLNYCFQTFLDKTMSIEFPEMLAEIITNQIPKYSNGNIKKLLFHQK
Cell Line: CHO-K1-GR-MMTV-Luc reporter cells
Culture Media: DMEM (with phenol red)+10% FBS
Assay Media: DMEM (without phenol red)+10% CSS
Culture CHO-K1-GR-MMTV-Luc reporter cells in 15 cm plates in Culture Media at conditions less than 90% confluence.
Prepare 200×DMSO 1:5 serial dilutions of control and test compounds in 96-well non-sterile V bottom plate in DMSO, 8 serial dilutions for each compound.
Prepare 5× Assay Media diluted compound serial dilutions in 96-well non-sterile V bottom plate: Add 97.5 uL/well of Assay Media into 96-well then add 2.5 ul of 200× concentration of compounds and mix well.
Seed cells for Antagonist Assay: […] CHO-K1-GR-MMTV-Luc reporter cells were seeded in a Corning 3707 flat clear bottom 384-well white TC plate in 20 ul of Assay Media containing 12.5 nM Dexamethasone (final concentration=10 nM).
Add compounds: 5 ul of assay media diluted compounds were added to appropriate wells and followed a quick spin (1000 rpm, 10 sec) to bring media and cells to the bottom of plate. The plates were covered with SealMate film to avoid evaporation and placed in 37° C. incubator for approximately 18-24 hours.
Read plates: Equilibrate appropriate amount of Promega OneGlo luciferase reagent to room temperature. Remove the plates from incubator and add 25 uL of OneGlo reagent/well by multiple channel pipette and read the plates with Tecan F500 luminometer within 3 minutes.
The ability of the compounds disclosed herein to inhibit GR activity was quantified and the respective IC50 value was determined. Table 3 provides the cellular IC50 values of various substituted steroidal compounds disclosed herein.
A general note: A reporter such as luciferase makes a cellular process visible.
The term pIC50 denotes −log10 of the IC50, conventionally taken in molar units. Lower therefore signals a high IC50. Take `Cc1c(F)cc([C@H]2C[C@@]3(C)[C@@H](CC[C@@]3(O)C#Cc3ccc(S(C)(=O)=O)cc3)[C@@H]3CCC4=CC(=O)CCC4=C32)cc1F` [drawing 293]: the pIC50 is not below 7.00.

Take `CC(C)(C)C#C[C@]1(O)CC[C@H]2[C@@H]3CCC4=CC(=O)CCC4=C3[C@@H](c3ccc(N4CCCC4)cc3)C[C@@]21C` [drawing 276]: the pIC50 is not below 7.00.

For the molecule `C[C@@H]1C[C@H]2[C@@H]3CCC4=CC(=O)CCC4=C3[C@@H](c3ccc(N(C)C)cc3)C[C@]2(C)[C@]1(O)C#CC(C)(C)C` [drawing 335], the pIC50 is less than 7.00.

As for `CN(C)c1cc(F)c([C@H]2C[C@@]3(C)[C@@H](CC[C@@]3(O)C#CC(F)(F)F)[C@@H]3CCC4=CC(=O)CCC4=C32)c(F)c1`, the pIC50 was not below 7.00.

Take `CC(C)Oc1ccc([C@H]2C[C@@]3(C)[C@@H](CC[C@@]3(O)C#CC(C)(C)C)[C@@H]3CCC4=CC(=O)CCC4=C32)cc1`: the pIC50 is not below 7.00.

`CN(C)c1ccc([C@H]2C[C@@]3(C)[C@@H](CC[C@@]3(O)C#CC(C)(C)C)[C@@H]3CCC4=CC(=O)CCC4=C32)cc1F` [drawing 284] had a pIC50 not below 7.00.

For the molecule `CC(C)(C)C#C[C@]1(O)CC[C@H]2[C@@H]3CCC4=CC(=O)CCC4=C3[C@@H](c3ccc(N4CCN(S(C)(=O)=O)CC4)cc3)C[C@@]21C` [drawing 346], the pIC50 is not below 7.00.

`CC(=O)N1CCN(c2ccc([C@H]3C[C@@]4(C)[C@@H](CC[C@@]4(O)C#CC(C)(C)C)[C@@H]4CCC5=CC(=O)CCC5=C43)cc2)CC1` gave a pIC50 not below 7.00.

`CCc1ccc([C@H]2C[C@@]3(C)[C@@H](CC[C@@]3(O)C#Cc3ccccc3)[C@@H]3CCC4=CC(=O)CCC4=C32)cc1` showed a pIC50 not below 7.00.

`COc1cc([C@H]2C[C@@]3(C)[C@@H](CC[C@@]3(O)C#CC(C)(C)C)[C@@H]3CCC4=CC(=O)CCC4=C32)ccc1N(C)C` gave a pIC50 of less than 7.00.

Consider `C[C@]12C[C@H](c3ccc4c(c3)OCCO4)C3=C4CCC(=O)C=C4CC[C@H]3[C@@H]1CC[C@@]2(O)C#CC(F)(F)F`, for which the pIC50 was not below 7.00.

Molecule `CN(C)c1cc(F)c([C@H]2C[C@@]3(C)[C@@H](CC[C@@]3(O)C#CC(C)(C)C)[C@@H]3CCC4=CC(=O)CCC4=C32)cc1F` [drawing 304] gave a pIC50 not below 7.00.

As to `CCc1ccc([C@H]2C[C@@]3(C)[C@@H](CC[C@@]3(O)C#CC(C)(C)C)[C@@H]3CCC4=CC(=O)CCC4=C32)cc1`, the pIC50 was not below 7.00.

Molecule `CN(C)c1ccc([C@H]2C[C@@]3(C)[C@@H](CC[C@@]3(O)C#Cc3ccc(Cl)cc3)[C@@H]3CCC4=CC(=O)CCC4=C32)cc1` gave a pIC50 not below 7.00.

In turn, `CC(C)N(C)c1ccc([C@H]2C[C@@]3(C)[C@@H](CC[C@@]3(O)C#CC(C)(C)C)[C@@H]3CCC4=CC(=O)CCC4=C32)cc1` gave a pIC50 not below 7.00.

With `C[C@]12C[C@H](c3ccc4c(c3)OCCO4)C3=C4CCC(=O)C=C4CC[C@H]3[C@@H]1CC[C@@]2(O)C#CC1CC1`, the pIC50 is not below 7.00.

Take `CC(C)(C)C#C[C@]1(O)CC[C@H]2[C@@H]3CCC4=CC(=O)CCC4=C3[C@@H](c3ccc(N4CCS(=O)(=O)CC4)cc3)C[C@@]21C`: the pIC50 was not below 7.00.

In turn, `CN(C)c1ccc([C@H]2C[C@@]3(C)[C@@H](CC[C@@]3(O)C#Cc3ccccn3)[C@@H]3CCC4=CC(=O)CCC4=C32)cc1` gave a pIC50 not below 7.00.

Turning to `CN(C)c1c(F)cc([C@H]2C[C@@]3(C)[C@@H](CC[C@@]3(O)C#CC(C)(C)C)[C@@H]3CCC4=CC(=O)CCC4=C32)cc1F`, the pIC50 is not below 7.00.

As to `COC1CN(c2ccc([C@H]3C[C@@]4(C)[C@@H](CC[C@@]4(O)C#CC(C)(C)OC)[C@@H]4CCC5=CC(=O)CCC5=C43)cc2)C1`, the pIC50 was less than 7.00.

Regarding `C[C@H]1CCCN1c1ccc([C@H]2C[C@@]3(C)[C@@H](CC[C@@]3(O)C#CC(C)(C)C)[C@@H]3CCC4=CC(=O)CCC4=C32)cc1`, the pIC50 is not below 7.00.

For the molecule `COC(C)(C)C#C[C@]1(O)CC[C@H]2[C@@H]3CCC4=CC(=O)CCC4=C3[C@@H](c3ccc(N4CCCC4)cc3)C[C@@]21C` [drawing 340], the pIC50 was not below 7.00.

With `CC(C)C#C[C@]1(O)CC[C@H]2[C@@H]3CCC4=CC(=O)CCC4=C3[C@@H](c3c(F)cc(N(C)C)cc3F)C[C@@]21C`, the pIC50 was not below 7.00.

As to `CN(C)c1cc(F)c([C@H]2C[C@@]3(C)[C@@H](CC[C@@]3(O)C#Cc3ccccc3)[C@@H]3CCC4=CC(=O)CCC4=C32)c(F)c1`, the pIC50 is not below 7.00.

Molecule `CC(C)C#C[C@]1(O)CC[C@H]2[C@@H]3CCC4=CC(=O)CCC4=C3[C@@H](c3ccc(N(C)C)c(F)c3F)C[C@@]21C` had a pIC50 not below 7.00.

`CC(C)(C)C#C[C@]1(O)CC[C@H]2[C@@H]3CCC4=CC(=O)CCC4=C3[C@@H](c3ccc(N)cc3)C[C@@]21C` showed a pIC50 of less than 7.00.

The molecule `COCCN(C)c1ccc([C@H]2C[C@@]3(C)[C@@H](CC[C@@]3(O)C#CC(C)(C)C)[C@@H]3CCC4=CC(=O)CCC4=C32)cc1` gave a negative-log IC50 (pIC50) not below 7.00.

`CCC#C[C@]1(O)CC[C@H]2[C@@H]3CCC4=CC(=O)CCC4=C3[C@@H](c3ccc4c(c3)OCCO4)C[C@@]21C` [drawing 324] showed a pIC50 not below 7.00.

With `CC(C)C#C[C@]1(O)CC[C@H]2[C@@H]3CCC4=CC(=O)CCC4=C3[C@@H](c3ccc4c(c3)OCCO4)C[C@@]21C`, the pIC50 was not below 7.00.

The molecule `CN(C)c1cc([C@H]2C[C@@]3(C)[C@@H](CC[C@@]3(O)C#CC(F)(F)F)[C@@H]3CCC4=CC(=O)CCC4=C32)ccc1Cl` showed a pIC50 of less than 7.00.

Regarding `CN(C)c1ccc([C@H]2C[C@@]3(C)[C@@H](CC[C@@]3(O)C#Cc3ccc(S(C)(=O)=O)cc3)[C@@H]3CCC4=CC(=O)CCC4=C32)cc1` [drawing 352], the pIC50 is not below 7.00.

Molecule `Cc1c(F)cc([C@H]2C[C@@]3(C)[C@@H](CC[C@@]3(O)C#CC(C)C)[C@@H]3CCC4=CC(=O)CCC4=C32)cc1F` had a pIC50 not below 7.00.

The molecule `CCN(C)c1cc(F)c([C@H]2C[C@@]3(C)[C@@H](CC[C@@]3(O)C#CC3CC3)[C@@H]3CCC4=CC(=O)CCC4=C32)c(F)c1` gave a pIC50 not below 7.00.

The molecule `CCN(c1ccc([C@H]2C[C@@]3(C)[C@@H](CC[C@@]3(O)C#CC(C)(C)C)[C@@H]3CCC4=CC(=O)CCC4=C32)cc1)C(C)C` gave a pIC50 of less than 7.00.

The molecule `CN(C(=O)CO)c1ccc([C@H]2C[C@@]3(C)[C@@H](CC[C@@]3(O)C#CC(C)(C)C)[C@@H]3CCC4=CC(=O)CCC4=C32)cc1` had a pIC50 of less than 7.00.

Molecule `Cc1ccc([C@H]2C[C@@]3(C)[C@@H](CC[C@@]3(O)C#CC(C)(C)C)[C@@H]3CCC4=CC(=O)CCC4=C32)cc1F` showed a negative logarithm of the IC50 (pIC50) not below 7.00.

As for `CC(C)c1ccc([C@H]2C[C@@]3(C)[C@@H](C[C@@H](C)[C@@]3(O)C#CC(C)(C)C)[C@@H]3CCC4=CC(=O)CCC4=C32)cc1`, the pIC50 was less than 7.00.

The molecule `COC(C)(C)C#C[C@]1(O)CC[C@H]2[C@@H]3CCC4=CC(=O)CCC4=C3[C@@H](c3ccc(C(C)(C)C)cc3)C[C@@]21C` showed a pIC50 not below 7.00.

As to `CC(C)C#C[C@]1(O)CC[C@H]2[C@@H]3CCC4=CC(=O)CCC4=C3[C@@H](c3c(F)cc(N4CCOCC4)cc3F)C[C@@]21C` [drawing 294], the pIC50 was not below 7.00.

`CC(C)(C)C#C[C@]1(O)CC[C@H]2[C@@H]3CCC4=CC(=O)CCC4=C3[C@@H](c3ccc(C4(C)COC4)cc3)C[C@@]21C` showed a pIC50 not below 7.00.

Molecule `CC(C)C#C[C@]1(O)CC[C@H]2[C@@H]3CCC4=CC(=O)CCC4=C3[C@@H](c3cc(F)c(N(C)C)cc3F)C[C@@]21C` showed a pIC50 not below 7.00.

The molecule `Cc1c(F)cc([C@H]2C[C@@]3(C)[C@@H](CC[C@@]3(O)C#CC(F)(F)F)[C@@H]3CCC4=CC(=O)CCC4=C32)cc1F` showed a pIC50 of less than 7.00.

`CC(C)(C)C#C[C@]1(O)CC[C@H]2[C@@H]3CCC4=CC(=O)CCC4=C3[C@@H](c3ccc(C(C)(CO)CO)cc3)C[C@@]21C` gave a pIC50 not below 7.00.

As for `CN(C)c1c(F)cc([C@H]2C[C@@]3(C)[C@@H](CC[C@@]3(O)C#CC3CC3)[C@@H]3CCC4=CC(=O)CCC4=C32)cc1F`, the pIC50 was not below 7.00.

In the case of `CC(C)N(C)c1ccc([C@H]2C[C@@]3(C)[C@@H](CC[C@@]3(O)C#CC3(C)COC3)[C@@H]3CCC4=CC(=O)CCC4=C32)cc1`, the pIC50 was not below 7.00.

As to `CN(C)c1ccc([C@H]2C[C@@]3(C)[C@@H](CC[C@@]3(O)C#CC3(C)COC3)[C@@H]3CCC4=CC(=O)CCC4=C32)cc1` [drawing 354], the pIC50 is not below 7.00.

On to `COCCN(C)c1ccc([C@H]2C[C@@]3(C)[C@@H](CC[C@@]3(O)C#CC(C)(C)OC)[C@@H]3CCC4=CC(=O)CCC4=C32)cc1`, for which the pIC50 was not below 7.00.

In turn, `CN(CC(F)(F)F)c1ccc([C@H]2C[C@@]3(C)[C@@H](CC[C@@]3(O)C#CC(C)(C)C)[C@@H]3CCC4=CC(=O)CCC4=C32)cc1` gave a pIC50 not below 7.00.

On to `C[C@]12C[C@H](c3ccc4c(c3)OCO4)C3=C4CCC(=O)C=C4CC[C@H]3[C@@H]1CC[C@@]2(O)C#CC(F)(F)F`, for which the pIC50 was not below 7.00.

These data come from patent publication US11124537B2, “Inhibitors of glucocorticoid receptor” (ORIC Pharmaceuticals, Inc., priority 2015, dated 2021).
